Results taken from patent US10508120B2, “TYK2 inhibitors and uses thereof” (Nimbus Lakshmi, Inc., priority 2017, dated 2019).
Read-outs that look alike come from different tables or passages of the source.

Tests used:
JAK2 kinase domain (JH1) = JAK2 kinase domain (JH1) (Homo sapiens (Human), UniProt O60674); assay: JAK2 Radioactive Kinase Assay; format: biochemical; conditions: for inhibition at 10 µM: read-out: JAK2 JH1% Inhibition @ 10 μM
How it was run: (§1)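 Single-point screen: 10 μM test compound, radioactive kinase read-out, percent inhibition reported for each kinase domain.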

[1] = target: human TYK2 (JH2domain-pseudokinase) (Homo sapiens (Human), UniProt P29597); assay: TYK2 JH2 Domain Binding Assay (KINOMEscan)
human TYK2 (JH2domain-pseudokinase), sequence (P29597 556-888): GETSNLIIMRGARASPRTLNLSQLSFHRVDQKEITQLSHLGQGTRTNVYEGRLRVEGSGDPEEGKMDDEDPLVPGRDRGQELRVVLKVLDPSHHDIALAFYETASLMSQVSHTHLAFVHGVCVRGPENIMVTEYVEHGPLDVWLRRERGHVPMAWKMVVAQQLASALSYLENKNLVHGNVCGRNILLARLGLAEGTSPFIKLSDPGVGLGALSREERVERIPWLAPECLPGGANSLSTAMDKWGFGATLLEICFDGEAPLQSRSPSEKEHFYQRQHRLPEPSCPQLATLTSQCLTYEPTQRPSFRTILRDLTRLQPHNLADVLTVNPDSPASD
How it was run: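 Displacement of a DNA-tagged TYK2 JH2 fusion (human, aa G556–D888, HEK293 extract, <0.1 nM) from ligand-coated beads over 1 h at RT; binding buffer PBS/0.05% Tween 20/10 mM DTT/0.1% BSA.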

Tyk2 kinase domain (DH1) = Tyk2 kinase domain (DH1) (Homo sapiens (Human), UniProt P29597); assay: Tyk2 Radioactive Kinase Assay; format: biochemical; conditions: for inhibition at 10 µM: read-out: Tyk2 JH1% Inhibition @ 10 μM
Tyk2 kinase domain (DH1), sequence (P29597 897-1176): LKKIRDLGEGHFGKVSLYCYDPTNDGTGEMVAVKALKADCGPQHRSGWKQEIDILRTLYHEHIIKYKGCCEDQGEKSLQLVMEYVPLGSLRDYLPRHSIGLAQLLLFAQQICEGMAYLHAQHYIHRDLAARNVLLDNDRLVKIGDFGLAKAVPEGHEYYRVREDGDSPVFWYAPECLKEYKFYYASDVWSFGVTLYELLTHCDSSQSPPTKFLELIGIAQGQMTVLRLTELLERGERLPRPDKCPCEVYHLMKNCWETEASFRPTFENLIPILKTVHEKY
How it was run: as §1

JAK2 kinase domain (JH1), sequence (O60674 849-1124): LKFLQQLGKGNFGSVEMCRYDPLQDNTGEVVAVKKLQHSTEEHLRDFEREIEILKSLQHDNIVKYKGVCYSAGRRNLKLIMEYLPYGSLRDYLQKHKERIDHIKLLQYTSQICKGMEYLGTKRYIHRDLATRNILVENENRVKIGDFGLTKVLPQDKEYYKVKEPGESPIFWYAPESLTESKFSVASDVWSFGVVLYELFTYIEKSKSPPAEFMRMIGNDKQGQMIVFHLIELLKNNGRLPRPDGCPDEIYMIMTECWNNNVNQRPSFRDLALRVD

| SMILES | inhibition at 10 µM (JAK2 kinase domain (JH1); compound at 10 μM, ATP 10 μM) [%] | Kd [1] [nM] | inhibition at 10 µM (Tyk2 kinase domain (DH1); compound at 10 μM, ATP 10 μM) [%] | also measured |
| --- | --- | --- | --- | --- |
| CNc1cc(Nc2cccn(C3CCCN(CCF)C3)c2=O)nc2c(C(=O)NC3CC3)cnn12 (stereo not drawn) [I-848] | – | < 0.2 | – | inhibition at 10 µM (JAK2 kinase domain (JH1); 10 μM compound, 10 μM ATP): < 50%; inhibition at 10 µM (Tyk2 kinase domain (DH1); 10 μM compound, 10 μM ATP): < 50% |
| CNc1cc(Nc2cccn(-c3cnn(C)c3)c2=O)nc2c(C(=O)NCC(C)CO)cnn12 (stereo not drawn) [I-633] | < 50 | < 0.2 | < 50 | – |
| CNc1cc(Nc2cccnc2OC2CC2)nc2c(C(=O)N[C@@H]3COC[C@@H]3O)cnn12 [I-546] | < 50 | 1 to 10 | < 50 | – |
| CNc1cc(-c2cn(CCN3CCN(C)CC3)c3ncccc23)nc2c(C(=O)N[C@H]3CC[C@H]3O)cnn12 (stereo in doubt) [I-851, N-(2-hydroxycyclobutyl)-7-(methylamino)-5-(1-(2-(4-methylpiperazin-1-yl)ethyl)-1H-pyrrolo[2,3-b]pyridin-3-yl)pyrazolo[1,5-a]pyrimidine-3-carboxamide] | – | < 0.2 | – | inhibition at 10 µM (JAK2 kinase domain (JH1); 10 μM compound, 10 μM ATP): < 50%; inhibition at 10 µM (Tyk2 kinase domain (DH1); 10 μM compound, 10 μM ATP): < 50% |
| CNc1cc(Nc2cccc([C@H]3CCCOC3)n2)nc2c(C(=O)N[C@@H]3COC[C@@H]3O)cnn12 [I-775] | – | < 0.2 | – | JAK2 JH1% Inhibition @ 10 μM (JAK2 kinase domain (JH1); compound at 10 μM, ATP 10 μM): A (percent inhibition at 10 μM lower than 50); Tyk2 JH1% Inhibition @ 10 μM (Tyk2 kinase domain (DH1); compound at 10 μM, ATP 10 μM): A (percent inhibition at 10 μM lower than 50) |
| CNc1cc(-c2cn(CCN3CCN(C)CC3)c3ncccc23)nc2c(C(=O)N[C@@H]3CC[C@@H]3O)cnn12 [I-907, N-((1R,2S)-2-hydroxycyclobutyl)-7-(methylamino)-5-(1-(2-(4-methylpiperazin-1-yl)ethyl)-1H-pyrrolo[2,3-b]pyridin-3-yl)pyrazolo[1,5-a]pyrimidine-3-carboxamide] | – | 0.2 to 1 | – | inhibition at 10 µM (JAK2 kinase domain (JH1); 10 μM compound, 10 μM ATP): < 50%; inhibition at 10 µM (Tyk2 kinase domain (DH1); 10 μM compound, 10 μM ATP): < 50% |
| CNc1cc(Nc2cccn([C@@H]3CC[C@H]3O)c2=O)nc2c(C(=O)NC3CC3)cnn12 [I-742] | < 50 | < 0.2 | < 50 | – |
| CCOc1ccc(-n2cccc(Nc3cc(N)n4ncc(C(N)=O)c4n3)c2=O)nn1 [I-33] | < 50 | 0.2 to 1 | < 50 | – |
| CNc1cc(Nc2cccnc2OC(CO)CO)nc2c(C(=O)N[C@H]3C[C@H]3F)cnn12 [I-200] | < 50 | 0.2 to 1 | < 50 | – |
| CNc1cc(Nc2cccn([C@H]3CC[C@@H]3O)c2=O)nc2c(C(=O)NC3CC3)cnn12 [I-801] | < 50 | 0.2 to 1 | < 50 | – |
| CNc1cc(Nc2cccn([C@@H]3CCC[C@@H](O)C3)c2=O)nc2c(C(=O)N[C@H]3CC[C@@H]3OC)cnn12 [I-1129] | – | 1 to 10 | – | JAK2 JH1% Inhibition @ 10 μM (JAK2 kinase domain (JH1); 10 μM compound, 10 μM ATP): A (percent inhibition at 10 μM lower than 50); Tyk2 JH1% Inhibition @ 10 μM (Tyk2 kinase domain (DH1); 10 μM compound, 10 μM ATP): A (percent inhibition at 10 μM lower than 50) |
| CNc1cc(Nc2cccn(C3CCOCC3)c2=O)nc2c(C(=O)NC[C@H](C)CO)cnn12 [I-1031] | – | < 0.2 | – | inhibition at 10 µM (JAK2 kinase domain (JH1); 10 μM compound, 10 μM ATP): < 50%; inhibition at 10 µM (Tyk2 kinase domain (DH1); 10 μM compound, 10 μM ATP): < 50% |
| CNc1cc(Nc2cccnc2OC)nc2c(C(=O)N[C@H]3CC[C@H](O)C3)cnn12 [I-487] | – | < 0.2 | – | JAK2 JH1% Inhibition @ 10 μM (JAK2 kinase domain (JH1); compound at 10 μM, ATP 10 μM): A (percent inhibition at 10 μM lower than 50); Tyk2 JH1% Inhibition @ 10 μM (Tyk2 kinase domain (DH1); compound at 10 μM, ATP 10 μM): A (percent inhibition at 10 μM lower than 50) |
| CNc1cc(Nc2cccn([C@H]3CCCOC3)c2=O)nc2c(C(=O)N[C@@H]3CC[C@@H]3O)cnn12 [I-696] | < 50 | < 0.2 | < 50 | – |

Second part, led by results:

| inhibition at 10 µM (JAK2 kinase domain (JH1); compound at 10 μM, ATP 10 μM) [%] | Kd [1] [nM] | inhibition at 10 µM (Tyk2 kinase domain (DH1); compound at 10 μM, ATP 10 μM) [%] | SMILES | also measured |
| --- | --- | --- | --- | --- |
| < 50 | 0.2 to 1 | < 50 | [2H]C([2H])([2H])Oc1ncccc1Nc1cc(NC)n2ncc(C(=O)N[C@@H]3CC[C@@H]3O)c2n1 (stereo in doubt) [I-400, N-((1R,2S)-2-hydroxycyclobutyl)-5-((2-(methoxy-d3)pyridin-3-yl)amino)-7-(methylamino) pyrazolo[1,5-a]pyrimidine-3-carboxamide] | – |
| – | 0.2 to 1 | – | CNc1cc(Nc2cccn([C@H]3CC[C@H](OC)CC3)c2=O)nc2c(C(=O)N[C@H]3CC[C@H]3O)cnn12 [I-561] | JAK2 JH1% Inhibition @ 10 μM (JAK2 kinase domain (JH1); compound at 10 μM, ATP 10 μM): A (percent inhibition at 10 μM lower than 50); Tyk2 JH1% Inhibition @ 10 μM (Tyk2 kinase domain (DH1); compound at 10 μM, ATP 10 μM): A (percent inhibition at 10 μM lower than 50) |
| < 50 | < 0.2 | < 50 | CNc1cc(Nc2cccn(-c3ccc(C(=O)N4CCCC4)cn3)c2=O)nc2c(C(=O)N[C@H]3C[C@H]3F)cnn12 [I-128] | – |
| < 50 | < 0.2 | < 50 | CNc1cc(Nc2cccn(-c3cnn(C)c3)c2=O)nc2c(C(=O)NC[C@@H](C)CO)cnn12 [I-669] | – |
| < 50 | 1 to 10 | < 50 | CNc1cc(Nc2cccnc2OC2CC2)nc2c(C(=O)NCCC3(O)CC3)cnn12 [I-469, 5-((2-cyclopropoxypyridin-3-yl)amino)-N-(2-(1-hydroxycyclopropyl)ethyl)-7-(methylamino)pyrazolo[1,5-a]pyrimidine-3-carboxamide] | – |
| – | < 0.2 | – | [2H]C([2H])([2H])Oc1ncccc1Nc1cc(NC)n2ncc(C(=O)N[C@H]3CCC[C@H](O)C3)c2n1 [I-498] | JAK2 JH1% Inhibition @ 10 μM (JAK2 kinase domain (JH1); compound at 10 μM, ATP 10 μM): A (percent inhibition at 10 μM lower than 50); Tyk2 JH1% Inhibition @ 10 μM (Tyk2 kinase domain (DH1); compound at 10 μM, ATP 10 μM): A (percent inhibition at 10 μM lower than 50) |
| – | 0.2 to 1 | – | CNc1cc(Nc2cccn(C(C)C)c2=O)nc2c(C(=O)N[C@@H]3CCC[C@@H](O)C3)cnn12 [I-1079] | inhibition at 10 µM (JAK2 kinase domain (JH1); 10 μM compound, 10 μM ATP): < 50%; inhibition at 10 µM (Tyk2 kinase domain (DH1); 10 μM compound, 10 μM ATP): < 50% |
| < 50 | < 0.2 | < 50 | CNc1cc(Nc2cccn(-c3ccc(C4CCN(C)CC4)cc3)c2=O)nc2c(C(=O)N[C@H]3C[C@H]3F)cnn12 [I-389] | – |
| < 50 | < 0.2 | < 50 | CNc1cc(Nc2cccc(N3CCC4(CCCO4)CC3)n2)nc2c(C(=O)N[C@H]3CC[C@H]3O)cnn12 [I-721] | – |
| < 50 | 0.2 to 1 | < 50 | CNc1cc(Nc2cccnc2O[C@H]2CC[C@H](O)CC2)nc2c(C(=O)NC3CC3)cnn12 [I-231] | – |
| < 50 | 1 to 10 | < 50 | CNc1cc(Nc2cc(C)nn(-c3cnn(C)c3)c2=O)nc2c(C(N)=O)cnn12 [I-73] | – |
| – | 0.2 to 1 | – | CNc1cc(Nc2cccnc2OC2CC2)nc2c(-c3cn(C(C)C)nn3)cnn12 [I-985, N5-(2-cyclopropoxypyridin-3-yl)-3-(1-isopropyl-1H-1,2,3-triazol-4-yl)-N7-methylpyrazolo[1,5-a]pyrimidine-5,7-diamine] | inhibition at 10 µM (JAK2 kinase domain (JH1); 10 μM compound, 10 μM ATP): < 50%; inhibition at 10 µM (Tyk2 kinase domain (DH1); 10 μM compound, 10 μM ATP): < 50% |
| < 50 | < 0.2 | < 50 | CNc1cc(Nc2cccnc2OC2CCOCC2)nc2c(C(=O)N[C@H]3C[C@H]3F)cnn12 [I-174] | – |
| < 50 | 0.2 to 1 | < 50 | CNc1cc(-c2nn(C3CCOCC3)c3ncccc23)nc2c(C(=O)NC3CC3)cnn12 [I-441] | – |
| < 50 | 1 to 10 | < 50 | CO[C@@H]1CCN(c2cc(Nc3cc(N)n4ncc(C(N)=O)c4n3)cc(C)n2)C1 [I-30] | – |
| < 50 | < 0.2 | < 50 | CNc1cc(Nc2cccc(N3CCC4(CCCO4)CC3)n2)nc2c(C(=O)N[C@H]3C[C@H]3F)cnn12 [I-656] | – |
| – | 0.2 to 1 | – | CNc1cc(Nc2cccn([C@H]3C[C@@H]3F)c2=O)nc2c(C(=O)N[C@@H]3CC[C@H]3O)cnn12 [I-1092] | inhibition at 10 µM (JAK2 kinase domain (JH1); 10 μM compound, 10 μM ATP): < 50%; inhibition at 10 µM (Tyk2 kinase domain (DH1); 10 μM compound, 10 μM ATP): < 50% |
| – | 0.2 to 1 | – | CNc1cc(Nc2cccn([C@@H]3CCCN(CCF)C3)c2=O)nc2c(C(=O)N[C@@H]3C[C@@H]3F)cnn12 [I-901] | inhibition at 10 µM (JAK2 kinase domain (JH1); 10 μM compound, 10 μM ATP): < 50%; inhibition at 10 µM (Tyk2 kinase domain (DH1); 10 μM compound, 10 μM ATP): < 50% |
| < 50 | 0.2 to 1 | < 50 | CNc1cc(Nc2cccn(C3CCN(C)CC3)c2=O)nc2c(C(=O)N[C@H]3CC[C@H]3O)cnn12 [I-689] | – |
| < 50 | < 0.2 | < 50 | CNc1cc(Nc2cccn([C@@H]3CCC[C@H](OC)C3)c2=O)nc2c(C(=O)NC3CC3)cnn12 [I-568] | – |
